From US10669242B2 (priority 2016, dated 2020) come the findings set out here.

Test [1] concerns the target T1, recombinant glucosyltransferase domain of C. difficile Toxin B/TcdB (Clostridioides difficile, UniProt P18177).
T1 construct: 6-His (C); purchased R&D Systems 6246-GT
The test can be described thus: biochemical.

For test [2], the target named is T2, C. difficile full-length toxin TcdA (Clostridioides difficile, UniProt P16154).
T2 construct: C. difficile full-length toxins (TcdA or TcdB); purchased Enzo Life Sciences BML-G140-0050
The test can be described thus: cell-based.

Test [3] concerns the target T3, C. difficile full-length toxin TcdB (Clostridioides difficile, UniProt P18177).
T3 construct: C. difficile full-length toxins (TcdA or TcdB); purchased EMD Millipore 616377
The test can be described thus: cell-based.

Test [4] has as its system C. difficile toxin (TcdA and TcdB, ~1:1). The test can be described thus: Murine C. difficile toxin model (intrarectal toxin). As to conditions: murine C. difficile toxin model, PO, 50 mg/kg body weight. It is filed as in vivo, C57BL/6 mice. Here is the method: In the following studies, we established a murine C. difficile toxin model with modifications from a published murine model (Hirota, Iablokov et al. 2012). Details of the murine C. difficile toxin model are described in the “Experimental Protocols” (below). C. difficile toxins were isolated from a culture of the C. difficile strain VPI 10463. C. difficile toxins consisted of TcdA and TcdB (˜1:1 ratio of TcdA:TcdB). Respective TcdA and TcdB concentrations were determined by enzyme-linked immunosorbant assay (ELISA). In our mouse model, C. difficile toxins were administered intrarectally to evaluate their pathological effects.
We administered C. difficile toxin (12.5 μg/mouse) via intrarectal instillation into female C57BL/6 mice. Four (4) animals were used in each group. Four (4) hours after the toxin administration, the mice were euthanized. The colons were excised from the animals and washed with phosphate buffered saline (PBS). The colon lengths were measured. Excised colon tissues were stored at −70° C. for chemical analysis of interleukin-1β(IL-1β) and myeloperosidase (MPO) in tissues, which are the hallmarks of colon inflammation. Excised colon tissues were also stored at room temperature in 10% neutral buffered formalin for histopathological analysis.
Using the murine C. difficile toxin model (Example 61), we evaluated the efficacy of Example 6a in reducing the C. difficile toxin activity. In this study, the isolated toxin (12.5 μg) was diluted in 50 μl of PBS and mixed with a 50 μl suspension of Example 6a (10 mg/mL) in 1% carboxymethyl cellulose and 0.5% Tween 80 to achieve a fixed dose of […] of Example 6a (0.5 mg in mice weighing ˜20 g) and C. difficile toxin (12.5 μg). Three (3) animals were used in each group.
In this study, we evaluated the efficacy of Example 6a via different routes of administration (i.e., oral (PO) and intraperitoneal (IP) administrations) in the same murine C. difficile toxin model (Example 61). In both PO and IP dosages, Example 6a was prepared as 5 mg/mL solutions in 20% PEG-400, 0.4% carboxymethyl cellulose and 0.2% Tween 80. Example 6a was administered at a final dose of 50 mg/kg body weight. Three (3) mice were used in each group (i.e., vehicle (control), PO and IP).
Using the murine C. difficile toxin model (Example 63), we further tested the efficacy of four (4) additional compounds (i.e., Example 6a, Example 5ae, Example 4cl, and Example 5al) via PO administration. All of the compounds were dosed orally at 50 mg/kg body weight. In three separate studies a total of three (3) to fourteen (14) mice were used in each group.
We evaluated the efficacy of additional compounds in reducing C. difficile toxicity. Using the PO administration (Example 63), we further tested 30 compounds (Table 34). All of the compounds were dosed orally at 50 mg/kg body weight. Three (3) to fourteen (14) animals were used for each compound. % inhibition was determined by the following formula: […]
An overnight culture of C. difficile strain VPI 10463 (American Type Culture Collection) was grown at 37° C. in Brain-Heart Infusion (BHI) broth using the GasPak EZ Anaerobe Pouch System (Becton Dickinson). 2 mL of the culture was added to 28 mL of phosphate buffered saline (PBS) in a gamma-irradiated, 10,000 molecular weight cut-off, 30-70 ml Slide-A-Lyzer G2 dialysis cassette (Pierce). This cassette was submerged in 1 L of BHI broth in a 2 L beaker and incubated under anaerobic conditions for 5 days at 37° C. The culture was then transferred to a 50 mL conical tube and the cassette was washed with 10 mL of PBS. The combined culture and wash were centrifuged at 2,000 g for 20 minutes to pellet the bacteria and the supernatant was filtered through a 0.2 μm syringe filter. The filtrate was then applied to a 20 mL 150 K molecular weight cut-off concentration column (Pierce) and centrifuged at 2,000 g for 15 minutes. Concentrated supernatant was stored at 4° C. […]

T1 sequence (P18177 1-543): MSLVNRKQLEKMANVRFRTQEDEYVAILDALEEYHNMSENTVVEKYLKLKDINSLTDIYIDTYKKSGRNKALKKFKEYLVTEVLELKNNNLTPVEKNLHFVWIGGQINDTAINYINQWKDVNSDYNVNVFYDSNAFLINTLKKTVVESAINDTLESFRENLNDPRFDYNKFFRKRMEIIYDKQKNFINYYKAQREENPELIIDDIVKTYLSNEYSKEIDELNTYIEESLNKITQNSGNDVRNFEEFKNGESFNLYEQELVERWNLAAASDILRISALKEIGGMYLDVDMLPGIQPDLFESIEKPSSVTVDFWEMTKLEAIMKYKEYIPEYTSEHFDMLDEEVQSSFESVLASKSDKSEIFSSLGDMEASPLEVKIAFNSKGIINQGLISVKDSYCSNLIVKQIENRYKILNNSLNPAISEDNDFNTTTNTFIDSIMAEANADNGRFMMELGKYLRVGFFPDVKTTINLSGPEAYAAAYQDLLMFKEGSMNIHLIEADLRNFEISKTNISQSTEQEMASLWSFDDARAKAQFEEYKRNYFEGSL
T3 sequence (P18177 2-2366 limits assumed): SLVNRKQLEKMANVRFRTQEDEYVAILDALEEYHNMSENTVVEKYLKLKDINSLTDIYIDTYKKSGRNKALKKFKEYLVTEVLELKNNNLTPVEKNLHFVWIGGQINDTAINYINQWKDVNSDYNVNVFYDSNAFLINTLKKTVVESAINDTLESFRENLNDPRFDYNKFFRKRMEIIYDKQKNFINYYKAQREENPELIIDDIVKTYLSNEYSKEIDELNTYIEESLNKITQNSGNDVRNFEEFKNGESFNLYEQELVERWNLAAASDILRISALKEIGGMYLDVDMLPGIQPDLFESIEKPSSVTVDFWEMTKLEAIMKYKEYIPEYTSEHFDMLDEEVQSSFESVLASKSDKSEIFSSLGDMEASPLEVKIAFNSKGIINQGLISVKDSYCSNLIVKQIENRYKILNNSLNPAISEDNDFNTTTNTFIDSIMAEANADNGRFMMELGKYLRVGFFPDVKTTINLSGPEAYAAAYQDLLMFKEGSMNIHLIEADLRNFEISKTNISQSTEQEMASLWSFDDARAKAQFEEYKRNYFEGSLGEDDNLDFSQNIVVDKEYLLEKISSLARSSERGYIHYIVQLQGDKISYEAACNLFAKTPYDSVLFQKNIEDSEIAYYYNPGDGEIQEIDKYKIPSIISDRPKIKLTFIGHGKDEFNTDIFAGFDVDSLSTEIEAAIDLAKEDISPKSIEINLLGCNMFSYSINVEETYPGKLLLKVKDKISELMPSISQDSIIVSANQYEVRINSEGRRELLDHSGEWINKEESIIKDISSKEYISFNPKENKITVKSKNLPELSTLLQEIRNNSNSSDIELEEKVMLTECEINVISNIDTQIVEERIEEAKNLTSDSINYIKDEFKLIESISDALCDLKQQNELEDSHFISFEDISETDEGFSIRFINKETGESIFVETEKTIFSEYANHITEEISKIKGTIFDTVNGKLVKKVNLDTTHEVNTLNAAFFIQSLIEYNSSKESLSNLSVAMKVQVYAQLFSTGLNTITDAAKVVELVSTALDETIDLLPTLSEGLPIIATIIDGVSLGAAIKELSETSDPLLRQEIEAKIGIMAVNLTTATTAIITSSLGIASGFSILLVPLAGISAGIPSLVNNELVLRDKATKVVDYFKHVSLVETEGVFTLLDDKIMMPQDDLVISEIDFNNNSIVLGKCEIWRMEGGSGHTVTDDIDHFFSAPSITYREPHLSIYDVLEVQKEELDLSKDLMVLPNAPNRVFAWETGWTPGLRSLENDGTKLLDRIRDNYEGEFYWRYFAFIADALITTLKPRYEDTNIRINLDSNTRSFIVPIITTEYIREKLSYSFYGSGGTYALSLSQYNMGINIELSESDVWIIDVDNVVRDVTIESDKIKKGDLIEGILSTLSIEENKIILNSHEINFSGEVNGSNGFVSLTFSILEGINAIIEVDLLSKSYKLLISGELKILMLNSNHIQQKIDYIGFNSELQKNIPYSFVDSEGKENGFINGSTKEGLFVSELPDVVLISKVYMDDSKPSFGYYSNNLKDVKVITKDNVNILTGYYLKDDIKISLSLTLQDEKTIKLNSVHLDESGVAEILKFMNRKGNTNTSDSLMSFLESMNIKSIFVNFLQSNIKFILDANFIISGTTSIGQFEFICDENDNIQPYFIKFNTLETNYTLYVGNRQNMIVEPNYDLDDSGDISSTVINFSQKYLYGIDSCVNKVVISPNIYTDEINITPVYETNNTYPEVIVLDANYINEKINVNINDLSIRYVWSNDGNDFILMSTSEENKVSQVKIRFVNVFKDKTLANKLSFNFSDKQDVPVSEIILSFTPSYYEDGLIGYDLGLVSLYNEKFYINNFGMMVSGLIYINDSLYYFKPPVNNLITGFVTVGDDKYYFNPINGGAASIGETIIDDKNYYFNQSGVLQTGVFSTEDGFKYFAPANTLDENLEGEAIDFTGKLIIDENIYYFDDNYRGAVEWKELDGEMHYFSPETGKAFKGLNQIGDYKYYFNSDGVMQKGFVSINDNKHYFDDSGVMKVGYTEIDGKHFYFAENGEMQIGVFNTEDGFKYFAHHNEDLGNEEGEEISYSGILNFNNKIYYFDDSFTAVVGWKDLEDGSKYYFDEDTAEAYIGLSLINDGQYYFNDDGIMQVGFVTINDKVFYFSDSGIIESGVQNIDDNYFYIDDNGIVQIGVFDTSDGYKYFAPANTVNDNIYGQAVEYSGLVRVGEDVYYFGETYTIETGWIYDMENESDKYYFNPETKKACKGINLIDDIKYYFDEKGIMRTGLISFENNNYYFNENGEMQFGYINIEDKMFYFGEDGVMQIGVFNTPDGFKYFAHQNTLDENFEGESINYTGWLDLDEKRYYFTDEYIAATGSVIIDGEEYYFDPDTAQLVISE

Consider `O=C1Nc2cc(Cl)ccc2C(=O)N(Cc2ccc(N3CCc4cccnc4C3=O)cc2)[C@@H]1Cc1ccccn1` [Example 49b, (R)-8-Chloro-4-(4-(8-oxo-5,6-dihydro-1,7-naphthyridin-7(8H)-yl)benzyl)-3-(pyridin-2-ylmethyl)-3,4-dihydro-1H-benzo[e][1,4]diazepine-2,5-dione], for which the IC50 (usually the concentration needed to halve the response being measured) in test [1] was less than 100 nM; in test [2], greater than 10000 nM; in test [3] it was 1000 to 10000 nM. Also, in test [4], the “IL-1β (% Inhibition)” value came out at 13%. Also, the “MPO (% Inhibition)” value in test [4] is listed as 0%.
On the same counts, the results for `Cc1cnc(NC(=O)c2ccc(CN3C(=O)c4ccc(Cl)cc4NC(=O)[C@H]3Cc3ccccn3)cc2Cl)cn1` [Example 5aa, (R)-2-Chloro-4-((8-chloro-2,5-dioxo-3-(pyridin-2-ylmethyl)-2,3-dihydro-1H-benzo[e][1,4]diazepin-4(5H)-yl)methyl)-N-(5-methylpyrazin-2-yl)benzamide] are less than 100 nM, 1000 to 10000 nM, 100 to 999 nM, 63% and 50%.
The matching figures for `Cc1ccc(NC(=O)c2ccc(CN3C(=O)c4ccc(Cl)cc4NC(=O)[C@H]3Cc3ccccn3)cc2Cl)nc1` [Example 4cb, (R)-2-Chloro-4-((8-chloro-2,5-dioxo-3-(pyridin-2-ylmethyl)-2,3-dihydro-1H-benzo[e][1,4]diazepin-4(5H)-yl)methyl)-N-(5-methylpyridin-2-yl)benzamide]: less than 100 nM, 100 to 999 nM, less than 100 nM, 74% and 99%.
For the molecule `COc1cnc(NC(=O)c2ccc(CN3C(=O)c4ccc(Cl)cc4NC(=O)[C@H]3Cc3ccccn3)cc2OC)nc1` [Example 5an, (R)-4-((8-Chloro-2,5-dioxo-3-(pyridin-2-ylmethyl)-2,3-dihydro-1H-benzo[e][1,4]diazepin-4(5H)-yl)methyl)-2-methoxy-N-(5-methoxypyrimidin-2-yl)benzamide], the IC50 is less than 100 nM in test [1], 1000 to 10000 nM in test [2] and 100 to 999 nM in test [3]. In addition, in test [4], the “IL-1β (% Inhibition)” value stood at 87%. Further, the “MPO (% Inhibition)” value in test [4] is listed as 63%.
The matching figures for `COc1cnc(NC(=O)c2ccc(CN3C(=O)c4ccc(Cl)cc4NC(=O)[C@H]3Cc3ccccn3)cc2C)nc1` [Example 5ai, (R)-4-((8-Chloro-2,5-dioxo-3-(pyridin-2-ylmethyl)-2,3-dihydro-1H-benzo[e][1,4]diazepin-4(5H)-yl)methyl)-N-(5-methoxypyrimidin-2-yl)-2-methylbenzamide]: less than 100 nM, 100 to 999 nM, less than 100 nM, 96% and 79%.
The matching figures for `COc1cnc(NC(=O)c2ccc(CN3C(=O)c4ccc(Cl)cc4NC(=O)[C@H]3Cc3ccccn3)cc2C)cn1` [Example 5af, (R)-4-((8-Chloro-2,5-dioxo-3-(pyridin-2-ylmethyl)-2,3-dihydro-1H-benzo[e][1,4]diazepin-4(5H)-yl)methyl)-N-(5-methoxypyrazin-2-yl)-2-methylbenzamide]: less than 100 nM, 1000 to 10000 nM, 100 to 999 nM, 100% and 100%.
In the case of `Cn1cc(C(=O)[C@H]2CC[C@H](CN3C(=O)c4ccc(Cl)cc4NC(=O)[C@H]3Cc3ccccn3)CC2)c2ncccc21` [Example 33b, (R)-8-Chloro-4-(((1r,4R)-4-(1-methyl-1H-pyrrolo[3,2-b]pyridine-3-carbonyl)cyclohexyl)methyl)-3-(pyridin-2-ylmethyl)-3,4-dihydro-1H-benzo[e][1,4]diazepine-2,5-dione], the IC50 was less than 100 nM in test [1], 1000 to 10000 nM in test [2] and 100 to 999 nM in test [3]. For the same molecule, in test [4], the “IL-1β (% Inhibition)” value is 84%. The “MPO (% Inhibition)” value in test [4] worked out at 41%.
The matching figures for `COc1cc(CN2C(=O)c3ccc(Cl)cc3NC(=O)[C@H]2Cc2ccccn2)ccc1C(=O)Nc1ccc(C(F)(F)F)cn1` [Example 4au, (R)-4-((8-Chloro-2,5-dioxo-3-(pyridin-2-ylmethyl)-2,3-dihydro-1H-benzo[e][1,4]diazepin-4(5H)-yl)methyl)-2-methoxy-N-(5-(trifluoromethyl)pyridin-2-yl)benzamide]: less than 100 nM, greater than 10000 nM, 100 to 999 nM, 40% and 0%.
On the same counts, the results for `COc1cc(CN2C(=O)c3ccc(Cl)cc3NC(=O)[C@H]2Cc2ccccn2)ccc1C(=O)Nc1cnc(C)cn1` [Example 5aj, (R)-4-((8-Chloro-2,5-dioxo-3-(pyridin-2-ylmethyl)-2,3-dihydro-1H-benzo[e][1,4]diazepin-4(5H)-yl)methyl)-2-methoxy-N-(5-methylpyrazin-2-yl)benzamide] are less than 100 nM, 1000 to 10000 nM, 100 to 999 nM, 76% and 17%.
`O=C1Nc2cc(Cl)ccc2C(=O)N(Cc2ccc(N3Cc4cccnc4C3=O)cc2)[C@@H]1Cc1ccccn1` [Example 49c, (R)-8-Chloro-4-(4-(7-oxo-5H-pyrrolo[3,4-b]pyridin-6(7H)-yl)benzyl)-3-(pyridin-2-ylmethyl)-3,4-dihydro-1H-benzo[e][1,4]diazepine-2,5-dione]: the results for the IC50 in test [1], in test [2] and in test [3] were less than 100 nM, greater than 10000 nM and greater than 10000 nM, respectively. Moreover, in test [4], the “IL-1β (% Inhibition)” value was determined as 30%. Further, the “MPO (% Inhibition)” value in test [4] turned out to be 0%.
Regarding `Cc1cnc(NC(=O)c2ccc(CN3C(=O)c4ccc(Cl)cc4NC(=O)[C@H]3Cc3ccccn3)cc2C)cn1` [Example 5ah, (R)-4-((8-Chloro-2,5-dioxo-3-(pyridin-2-ylmethyl)-2,3-dihydro-1H-benzo[e][1,4]diazepin-4(5H)-yl)methyl)-2-methyl-N-(5-methylpyrazin-2-yl)benzamide], the IC50 in test [1] is less than 100 nM; in test [2] it was 1000 to 10000 nM; in test [3], 100 to 999 nM. In addition, in test [4], the “IL-1β (% Inhibition)” value came to 91%. Also, the “MPO (% Inhibition)” value in test [4] was 65%.
Regarding `O=C(c1ccc(CN2C(=O)c3ccc(Cl)cc3NC(=O)[C@H]2Cc2ccccn2)cc1)c1cccn2ccnc12` [Example 34a, (R)-8-Chloro-4-(4-(imidazo[1,2-α]pyridine-8-carbonyl)benzyl)-3-(pyridin-2-ylmethyl)-3,4-dihydro-1H-benzo[e][1,4]diazepine-2,5-dione], the values for the IC50 in test [1], in test [2] and in test [3] were less than 100 nM, greater than 10000 nM and 100 to 999 nM, respectively.
On to `O=C(c1ccc(CN2C(=O)c3ccc(Cl)cc3NC(=O)[C@H]2Cc2ccccn2)cc1)c1c[nH]c2cccnc12` [Example 32a, 4-(4-(1H-Pyrrolo[3,2-b]pyridine-3-carbonyl)benzyl)-8-chloro-3-(pyridin-2-ylmethyl)-3,4-dihydro-1H-benzo[e][1,4]diazepine-2,5-dione], for which the IC50 in test [1] was less than 100 nM. For the same molecule, in test [4], the “IL-1β (% Inhibition)” value was 72% and the “MPO (% Inhibition)” value stood at 76%.
